Source: the NIST ThermoML archive (doi:10.1016/j.jct.2006.03.014)
Numbers after ± are expanded uncertainties.

Experiment: xn = mol fraction of the nth substance listed
Conditions: 101 kPa, Liquid; for viscosity: Capillary tube (Ostwald / Ubbelohde) method; for mass density: Pycnometric method

CC1OC(C)OC(C)O1 (centres undefined) [2,4,6-trimethyl-1,3,5-trioxane] + CCOC(C)=O
Conditions | mass density, 298.15 K [kg/m3] | mass density, 303.15 K [kg/m3] | mass density, 308.15 K [kg/m3] | viscosity, 298.15 K [mPa·s] | viscosity, 303.15 K [mPa·s] | viscosity, 308.15 K [mPa·s]
x1 = 0.0203 | 896.3 ± 1.2 | 890 ± 1.2 | 883.7 ± 1.2 | 0.435 ± 0.008 | 0.405 ± 0.008 | 0.392 ± 0.008
x1 = 0.04 | 898.7 ± 1.2 | 892.4 ± 1.2 | 886 ± 1.2 | 0.439 ± 0.008 | 0.411 ± 0.008 | 0.395 ± 0.008
x1 = 0.0601 | 901.1 ± 1.2 | 894.8 ± 1.2 | 888.5 ± 1.3 | 0.446 ± 0.008 | 0.419 ± 0.008 | 0.4 ± 0.008
x1 = 0.0799 | 903.5 ± 1.2 | 897.2 ± 1.3 | 890.8 ± 1.3 | 0.451 ± 0.008 | 0.421 ± 0.008 | 0.407 ± 0.008
x1 = 0.1002 | 905.8 ± 1.2 | 899.6 ± 1.3 | 893.2 ± 1.3 | 0.457 ± 0.008 | 0.428 ± 0.008 | 0.412 ± 0.008
x1 = 0.1957 | 916.6 ± 1.2 | 910.4 ± 1.3 | 904 ± 1.3 | 0.491 ± 0.009 | 0.455 ± 0.008 | 0.439 ± 0.008
x1 = 0.3 | 927.8 ± 1.2 | 921.6 ± 1.3 | 915.2 ± 1.3 | 0.53 ± 0.009 | 0.492 ± 0.008 | 0.468 ± 0.008
x1 = 0.4 | 937.9 ± 1.3 | 931.8 ± 1.3 | 925.4 ± 1.3 | 0.567 ± 0.009 | 0.53 ± 0.009 | 0.503 ± 0.009
x1 = 0.5001 | 947.4 ± 1.3 | 941.3 ± 1.3 | 935 ± 1.3 | 0.61 ± 0.009 | 0.574 ± 0.009 | 0.539 ± 0.009
x1 = 0.6001 | 956.4 ± 1.3 | 950.4 ± 1.3 | 944.1 ± 1.3 | 0.663 ± 0.01 | 0.628 ± 0.01 | 0.586 ± 0.009
x1 = 0.7 | 965 ± 1.3 | 959 ± 1.3 | 952.7 ± 1.3 | 0.739 ± 0.011 | 0.691 ± 0.01 | 0.639 ± 0.01
x1 = 0.8001 | 973.1 ± 1.3 | 967.3 ± 1.3 | 960.9 ± 1.4 | 0.832 ± 0.012 | 0.766 ± 0.011 | 0.708 ± 0.01
x1 = 0.9 | 980.9 ± 1.3 | 975.1 ± 1.3 | 968.8 ± 1.4 | 0.947 ± 0.013 | 0.861 ± 0.012 | 0.789 ± 0.011
x1 = 1 | 988.4 ± 1.3 | 982.6 ± 1.3 | 976.4 ± 1.4 | 1.107 ± 0.015 | 1.001 ± 0.014 | 0.907 ± 0.013
